Measured values as given in patent US20140135310A1, “SULPHONAMIDE DERIVATIVES OF ALICYCLIC AMINES FOR THE TREATMENT OF CENTRAL NERVOUS SYSTEM DISEASES” (Adamed Sp. z o.o., priority 2011, published 2014).

What was measured:
5-HT6 receptor = biological target: T1, 5-HT6 receptor (Homo sapiens, UniProt P50406); experiment: Radioligand binding assay, serotoninergic 5-HT6 receptors; conditions: binding assay result in %, Table 5a;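 further: test compound at 1 µM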
T1 construct: purchased PerkinElmer
Text: (§1) The specific ligand binding to the receptors is defined as the difference between the total binding and the non-specific binding determined in the presence of the excess of unlabelled ligand.
(§2) The results are expressed as a percent of control specific binding ((measured specific binding/control specific binding)×100) and as a percent inhibition of control specific binding (100−((measured specific binding/control specific binding)×100)) obtained in the presence of the test compounds. The specific ligand binding to the receptors is defined as the difference between the total binding and the nonspecific binding determined in the presence of an excess of unlabelled ligand. Scintillation counting was the method of detection of ligand binding. The IC50 values (concentration causing a half-maximal inhibition of control specific binding) were determined by non-linear regression analysis of the competition curves generated with mean replicate values using Hill equation curve fitting (Y=D+[(A−D)/(1+(C/C50)nH)], where Y=specific binding, D=minimum specific binding, A=maximum specific binding, C=compound concentration, C50=IC50, and nH=slope factor). This analysis was performed using a software developed at Cerep (Hill software) and validated by comparison with data generated by the commercial software SigmaPlot® 4.0 for Windows® (© 1997 by SPSS Inc.). The inhibition constants (Ki) were calculated using the Cheng Prusoff equation (Ki=IC50/(1+(L/KD)), where L=concentration of radioligand in the assay, and KD=affinity of the radioligand for the receptor). A scatchard plot was used to determine the Kd.
(§3) Experimental conditions for tests are given in Table 4, and results of tests for representative compounds of the invention are given in Table 5a and 5b (receptors 5-HT1A, 5-HT2A, 5-HT6 and 5-HT7) and in Table 6 (receptors 5-HT2C).
5-HT6: Bryan L. Roth. Assay Protocol Book. University of North Carolina At Chapel Hill. National Institute of Mental Health. Psychoactive Drug Screening Program. Available on-line at 31 Aug. 2008: http://pdsp.med.unc.edu/UNC-CH %20Protocol%20Book.pdf

[1] = biological target: dopaminergic receptors D3 (Homo sapiens, UniProt P35462); experiment: Radioligand binding assay, dopaminergic D3 receptors; conditions: test compound 1×10^−6 M
Chain of dopaminergic receptors D3 (P35462 whole entry): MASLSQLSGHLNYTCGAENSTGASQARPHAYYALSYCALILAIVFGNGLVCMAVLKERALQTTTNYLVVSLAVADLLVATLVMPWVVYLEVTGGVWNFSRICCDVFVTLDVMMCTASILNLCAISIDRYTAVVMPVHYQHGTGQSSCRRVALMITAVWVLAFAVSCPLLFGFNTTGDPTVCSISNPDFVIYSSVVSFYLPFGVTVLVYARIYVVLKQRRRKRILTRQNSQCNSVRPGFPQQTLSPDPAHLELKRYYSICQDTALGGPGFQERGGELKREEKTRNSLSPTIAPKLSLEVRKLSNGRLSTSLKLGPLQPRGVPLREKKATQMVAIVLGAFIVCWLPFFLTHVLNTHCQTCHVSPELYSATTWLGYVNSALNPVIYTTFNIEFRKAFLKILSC
Text: as §1, §2
(§4) Experimental conditions for tests are given in Table 1, the results of tests for representative compounds are given in Tables 2a and 2b (receptors D2 and D3) and in Table 3 (receptors D4).

[2] = biological target: T2, 5-HT1A receptor (rat hippocampus) (Rattus norvegicus, UniProt P19327); experiment: Radioligand binding assay, serotoninergic 5-HT1A receptors; conditions: binding assay result in %, Table 5a;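 further: test compound at 1 µM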
T2 construct: hippocampus; from tissue; host or cells: rat hippocampus
T2 sequence (P19327 1-422): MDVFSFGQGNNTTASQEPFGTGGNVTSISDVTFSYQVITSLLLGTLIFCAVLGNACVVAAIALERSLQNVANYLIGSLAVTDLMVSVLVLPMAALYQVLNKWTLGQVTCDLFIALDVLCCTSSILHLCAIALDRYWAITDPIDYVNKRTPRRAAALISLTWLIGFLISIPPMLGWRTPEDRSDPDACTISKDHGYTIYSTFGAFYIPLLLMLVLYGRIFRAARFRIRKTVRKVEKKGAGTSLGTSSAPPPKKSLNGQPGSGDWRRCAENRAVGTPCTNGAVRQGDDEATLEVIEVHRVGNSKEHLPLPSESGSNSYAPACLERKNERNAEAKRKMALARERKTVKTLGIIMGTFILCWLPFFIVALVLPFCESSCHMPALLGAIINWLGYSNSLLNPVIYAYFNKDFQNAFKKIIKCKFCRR
Text: as §1, §2, §3

[3] = tested on: α1 adrenergic receptors (rat cerebral cortex); experiment: Radioligand binding assay, adrenergic α1 receptors; conditions: test compound 1×10^−6 M
Text: as §1
as §2, with “This analysis was performed using a software developed at Cerep (Hill software) and validated by comparison with data generated by the commercial software SigmaPlot® 4.0 for Windows® (© 1997 by SPSS Inc.).” left out

5-HT2A receptor = biological target: T3, 5-HT2A receptor (Homo sapiens, UniProt P28223); experiment: Radioligand binding assay, serotoninergic 5-HT2A receptors; conditions: binding assay result in %, Table 5a
T3 construct: purchased PerkinElmer
T3 sequence (P28223 whole entry): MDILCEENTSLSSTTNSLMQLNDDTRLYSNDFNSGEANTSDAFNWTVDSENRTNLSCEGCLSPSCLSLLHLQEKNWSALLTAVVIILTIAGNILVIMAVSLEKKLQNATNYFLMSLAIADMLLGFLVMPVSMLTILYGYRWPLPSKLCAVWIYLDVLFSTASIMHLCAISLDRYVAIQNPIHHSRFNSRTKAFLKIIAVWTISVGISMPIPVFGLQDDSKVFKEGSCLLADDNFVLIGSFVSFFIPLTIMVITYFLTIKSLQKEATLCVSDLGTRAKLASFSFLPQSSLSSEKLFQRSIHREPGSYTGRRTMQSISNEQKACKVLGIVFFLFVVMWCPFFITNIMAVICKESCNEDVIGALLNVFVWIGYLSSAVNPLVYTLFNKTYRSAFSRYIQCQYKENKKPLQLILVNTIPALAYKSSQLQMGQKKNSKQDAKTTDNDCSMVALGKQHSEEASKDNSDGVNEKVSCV
Text: as §1, §2
5-HT2A: Bryan L. Roth. Assay Protocol Book. University of North Carolina At Chapel Hill. National Institute of Mental Health. Psychoactive Drug Screening Program. Available on-line at 31 Aug. 2008: http://pdsp.med.unc.edu/UNC-CH%20Protocol%20Book.pdf

5-HT7 receptor = biological target: T4, 5-HT7 receptor (Homo sapiens, UniProt P34969); experiment: Radioligand binding assay, serotoninergic 5-HT7 receptors; conditions: binding assay result in %, Table 5a;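 further: test compound at 1 µM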
T4 construct: purchased PerkinElmer
T4 sequence (P34969 whole entry): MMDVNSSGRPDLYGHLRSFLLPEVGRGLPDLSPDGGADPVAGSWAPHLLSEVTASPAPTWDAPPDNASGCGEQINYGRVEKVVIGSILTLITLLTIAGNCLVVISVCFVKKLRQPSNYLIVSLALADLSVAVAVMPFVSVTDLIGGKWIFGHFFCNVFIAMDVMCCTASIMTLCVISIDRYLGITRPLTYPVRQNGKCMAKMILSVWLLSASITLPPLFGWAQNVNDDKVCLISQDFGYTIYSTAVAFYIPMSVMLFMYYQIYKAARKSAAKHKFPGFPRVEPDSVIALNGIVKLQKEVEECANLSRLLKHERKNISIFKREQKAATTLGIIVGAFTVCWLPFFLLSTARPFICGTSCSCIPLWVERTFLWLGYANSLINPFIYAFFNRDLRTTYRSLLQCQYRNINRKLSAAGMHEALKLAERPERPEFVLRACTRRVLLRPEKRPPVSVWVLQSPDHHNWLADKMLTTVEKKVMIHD
Text: as §1, §2, §3
5-HT7: Bryan L. Roth. Assay Protocol Book. University of North Carolina At Chapel Hill. National Institute of Mental Health. Psychoactive Drug Screening Program. Available on-line at 31 Aug. 2008: http://pdsp.med.unc.edu/UNC-CH %20Protocol%20Book.pdf

[4] = biological target: T5, serotonin transporter (SERT) (Homo sapiens, UniProt P31645); experiment: Radioligand binding assay, serotonin transporter (SERT); conditions: binding assay, test compound 1×10^−6 M
T5 construct: expressed in transfected cells; host or cells: CHO cells
T5 sequence (P31645 whole entry): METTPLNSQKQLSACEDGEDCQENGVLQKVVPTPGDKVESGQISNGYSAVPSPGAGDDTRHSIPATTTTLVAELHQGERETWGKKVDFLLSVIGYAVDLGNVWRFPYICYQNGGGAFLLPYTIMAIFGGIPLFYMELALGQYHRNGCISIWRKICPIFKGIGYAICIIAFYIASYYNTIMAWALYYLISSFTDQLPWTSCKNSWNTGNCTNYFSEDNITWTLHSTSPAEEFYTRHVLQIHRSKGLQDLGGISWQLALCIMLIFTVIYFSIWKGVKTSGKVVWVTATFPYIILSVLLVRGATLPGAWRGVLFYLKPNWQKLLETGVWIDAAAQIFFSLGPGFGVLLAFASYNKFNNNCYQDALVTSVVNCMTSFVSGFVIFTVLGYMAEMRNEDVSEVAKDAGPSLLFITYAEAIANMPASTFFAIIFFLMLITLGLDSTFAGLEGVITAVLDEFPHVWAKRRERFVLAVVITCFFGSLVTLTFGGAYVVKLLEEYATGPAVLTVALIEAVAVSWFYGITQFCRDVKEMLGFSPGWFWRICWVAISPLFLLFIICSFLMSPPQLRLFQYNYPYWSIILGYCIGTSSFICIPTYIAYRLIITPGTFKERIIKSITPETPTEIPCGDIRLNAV
Text: as §1, §2
Experimental conditions for tests are given in Table 12, and results of tests for representative compounds are given in Tables 13a and 13b.

[5] = biological target: dopaminergic receptors D2 (Homo sapiens, UniProt P14416); experiment: Radioligand binding assay, dopaminergic D2 receptors; conditions: binding assay, test compound 1×10^−6 M
Chain of dopaminergic receptors D2 (P14416 whole entry): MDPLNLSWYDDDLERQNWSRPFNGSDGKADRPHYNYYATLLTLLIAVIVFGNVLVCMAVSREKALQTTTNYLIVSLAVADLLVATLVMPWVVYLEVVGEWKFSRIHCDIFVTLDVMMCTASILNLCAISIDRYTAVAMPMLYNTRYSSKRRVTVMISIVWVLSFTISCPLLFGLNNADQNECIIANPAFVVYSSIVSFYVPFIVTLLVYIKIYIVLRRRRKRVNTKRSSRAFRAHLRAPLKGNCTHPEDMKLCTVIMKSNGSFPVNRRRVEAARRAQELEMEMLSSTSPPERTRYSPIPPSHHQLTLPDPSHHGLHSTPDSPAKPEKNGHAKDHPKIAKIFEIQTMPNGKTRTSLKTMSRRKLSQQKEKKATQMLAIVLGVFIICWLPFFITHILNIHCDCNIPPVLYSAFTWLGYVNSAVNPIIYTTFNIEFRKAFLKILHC
Text: as §1, §2, §4

T1 sequence (P50406 whole entry): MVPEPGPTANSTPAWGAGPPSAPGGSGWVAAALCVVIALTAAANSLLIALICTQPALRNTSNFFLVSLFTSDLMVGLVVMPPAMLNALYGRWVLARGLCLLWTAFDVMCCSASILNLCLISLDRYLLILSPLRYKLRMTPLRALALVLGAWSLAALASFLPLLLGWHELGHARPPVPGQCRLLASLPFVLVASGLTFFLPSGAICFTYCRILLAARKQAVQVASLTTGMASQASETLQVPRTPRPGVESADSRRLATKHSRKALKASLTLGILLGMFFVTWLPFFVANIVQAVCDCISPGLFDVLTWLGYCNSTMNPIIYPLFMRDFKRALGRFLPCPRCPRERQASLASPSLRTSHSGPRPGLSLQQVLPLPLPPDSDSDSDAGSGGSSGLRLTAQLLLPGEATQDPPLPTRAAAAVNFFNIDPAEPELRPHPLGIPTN

Compound	inhibition at 1 µM (5-HT6 receptor)	inhibition at 1 µM [1]	inhibition at 1 µM [2]	α1 [%] [3]	inhibition at 1 µM (5-HT2A receptor)	inhibition at 1 µM (5-HT7 receptor)	inhibition at 1 µM [4]	inhibition at 1 µM [5]	5-HT6 [%] (5-HT6 receptor)	D3 [%] [1]	5-HT1A [%] [2]	5-HT2A [%] (5-HT2A receptor)	5-HT7 [%] (5-HT7 receptor)	SERT [%] [4]	D2 [%] [5]
Cn1ccc2c(S(=O)(=O)NCC3CN(CCOc4cccc5c4OCCO5)C3)cccc21 [Compound 188, N-[[1-[2-(2,3-Dihydro-1,4-benzodioxin-5-yloxy)ethyl]azetidin-3-yl]methyl]-1-methyl-indole-4-sulphonamide]	14%	51%	101%	91%	89%	91%	44%	52%							
O=S(=O)(NC1CCN(CCCc2noc3cc(F)ccc23)C1)c1cccc(C(F)(F)F)c1 (stereo not shown) [Compound 15, N-[1-[3-(6-Fluoro-1,2-benzoxazol-3-yl)propyl]pyrrolidin-3-yl]-3-(trifluoromethyl)benzenesulphonamide]	83%	14%	18%	89%	57%	48%	-7%	75%							
O=S(=O)(NC1CCN(CCOc2cccc3[nH]ccc23)CC1)c1ccc2ccccc2c1 [Compound 61, N-[1-[2-(1H-Indol-4-yloxy)ethyl]-4-piperidine]naphthalene-2-sulphonamide]				79%					71%	83%	77%	92%	95%	43%	39%
Cc1c(S(=O)(=O)NC2CCN(CCCc3noc4cc(F)ccc34)CC2)sc2ccc(Cl)cc12 [Compound 326, 5-Chloro-N-[1-[3-(6-fluoro-1,2-benzoxazol-3-yl)propyl]-4-piperidyl]-3-methyl-benzothiophene-2-sulphonamide]	83%	61%	-1%	70%	97%	91%	10%	86%							
O=S(=O)(NCC1CCN(CCOc2cccc3ccccc23)C1)c1cc2ccc(Cl)cc2s1 (stereo not shown) [Compound 269, 6-Chloro-N-[[1-[2-(1-naphthyloxy)ethyl]pyrrolidin-3-yl]methyl]-benzothiophene-2-sulphonamide]	82%	89%	60%	−1%	91%	98%	53%	38%							
O=S(=O)(NCC1CCN(CCCc2noc3cc(F)ccc23)CC1)c1cccc2ccccc12 [Compound 37, N-[[1-[3-(6-Fluoro-1,2-benzoxazol-3-yl)propyl]-4-piperidine]methyl]-naphthalene-1-sulphonamide]				96%					97%	66%	29%	56%	94%	30%	83%
O=S(=O)(NCC1CN(CCCc2noc3cc(F)ccc23)C1)c1cccc(O)c1 [Compound 149, N-[[1-[3-(6-Fluoro-1,2-benzoxazol-3-yl)propyl]azetidin-3-yl]methyl]-3-hydroxy-benzenesulphonamide]	71%	39%	82%		96%	113%	22%	91%							
O=S(=O)(NCC1CCN(CCCc2noc3cc(F)ccc23)C1)c1cccc(O)c1 (stereo not shown) [Compound 254, N-[[1-[3-(6-Fluoro-1,2-benzoxazol-3-yl)propyl]pyrrolidin-3-yl]methyl]-3-hydroxy-benzenesulphonamide]	78%	34%	49%		98%	102%	10%	75%							
COc1cccc(S(=O)(=O)NCC2CCN(CCCc3noc4cc(F)ccc34)C2)c1 (stereo not shown) [Compound 250, N-[[1-[3-(6-Fluoro-1,2-benzoxazol-3-yl)propyl]pyrrolidin-3-yl]methyl]-3-methoxy-benzenesulphonamide]	74%	55%	30%		87%	91%	23%	18%							
Cc1cccc(S(=O)(=O)NCC2CN(CCCc3noc4cc(F)ccc34)C2)c1 [Compound 142, N-[[1-[3-(6-Fluoro-1,2-benzoxazol-3-yl)propyl]azetidin-3-yl]methyl]-3-methyl-benzenesulphonamide]	37%	45%	29%		77%	87%	-4%	58%							
O=S(=O)(NC1CCN(CCCc2noc3cc(F)ccc23)CC1)c1ccccc1 [Compound 32, N-[1-[3-(6-Fluoro-1,2-benzoxazol-3-yl)propyl]-4-piperidine]benzene-sulphonamide]									63%	57%	37%	83%	92%	5%	63%
Cn1ccc2c(S(=O)(=O)NCC3CCN(CCCc4noc5cc(F)ccc45)C3)cccc21 (stereo not shown) [Compound 259, N-[[1-[3-(6-Fluoro-1,2-benzoxazol-3-yl)propyl]pyrrolidin-3-yl]methyl]-1-methyl-indole-4-sulphonamide]	92%	61%	42%		100%	91%	-5%	84%							
O=S(=O)(NC1CCN(CCCc2noc3cc(F)ccc23)C1)c1ccc(Cl)cc1 (stereo not shown) [Compound 208, 4-Chloro-N-[1-[3-(6-fluoro-1,2-benzoxazol-3-yl)propyl]pyrrolidin-3-yl]benzenesulphonamide]	87%	49%	9%		100%	96%	-2%	90%							
